In patent US12036234B2, “Heparin conjugated to collagen-binding peptides for targeting to biological and synthetic tissues” (Northwestern University, priority 2017, dated 2024):
“Also recorded” adds a separate entry of the source. Ends that are not written are not given here.

Tests used:
[1] = tested on: Human umbilical vein endothelial cells (HUVECs); assay: Endothelial cell adhesion and retention on modified ECM; assay type: cell-based; settings: 4 weeks (day 28) in culture
Method: Addition of Endothelial Cells to Modified ECM. Human umbilical vein endothelial cells (HUVECs, Lonza) at passages 3-8 were cultured in EGM-2 and used for cell seeding. The following groups of ECM vascular grafts (1 cm in length each, n=3 per group) were prepared: (1) ECM control alone without heparin or peptide; (2) ECM incubated with free, unconjugated heparin sodium (1 mg/mL); (3) ECM incubated with CBPi conjugated to heparin (1 mg/mL); and (4) ECM incubated with CBP conjugated to heparin (1 mg/mL). HUVECs were seeded twice onto the lumen of each graft (10000 cells/cm^2 at each inoculation) with a 180° rotation of the graft at 30 min after initial seeding. Recellularized grafts were maintained in culture under static condition with medium changed every 2 days.
Cell Number and Viability Measurement. Resazurin was used to assess cell number and viability of HUVECs on ECM grafts over time. 16 Resazurin sodium (44 μM in EGM-2) was added to cell-laden, ECM-modified grafts and incubated for 2 h and the fluorescence intensity (Ex 560 nm, Em 590 nm) was read. The number of cells was calculated based on the fluorescence reading of serially diluted HUVEC suspensions incubated in resazurin solution to develop a standard curve. Prior to performing each measurement, cell seeded grafts were moved to a new low-attachment, multiwell plate to eliminate off target readings from cells that may have migrated off the graft.
Cell Staining and Fluorescence Microscopy. At 4 weeks after cell seeding, each cell-seeded graft was fixed with paraformaldehyde and stained with Phalloidin-488. Fluorescence microscopy (Nikon TE2000U, Japan) was performed on the flattened luminal surface of the graft.

fibronectin = assay: Peptide binding to ECM protein coated plates (streptavidin-594 fluorescence); parameters: species or system human; settings: biotinylated peptide
Method: (§1) Peptide and ECM Binding Specificity. Collagens I, II, III, and IV, fibronectin, laminin, and Matrigel were coated onto 96-well black plates at 10 μg/cm^2. Biotinylated CBP or CBPi were added to coated plates at 0, 1, 10, 100, and 1000 μM overnight at 4° C., after which the plates were washed three times with PBS. Fluorescent streptavidin-594 (4 μg/mL) was added to each well and incubated at room temperature for 2 h, then thoroughly washed with PBS. The plates were read with a fluorescence microplate reader for fluorescence intensity (Ex 591 nm, Em 614 nm). All data were normalized to the background fluorescence intensity of Streptavidin-594 alone directed at each coated protein.

laminin = molecular target: T1, laminin (Mus musculus, UniProt P02468+P02469+P19137); assay: as above; settings: 1000 μM biotinylated peptide
T1 construct: purchased Sigma-Aldrich
Method: as §1

collagen III = molecular target: T2, collagen III (Homo sapiens, UniProt P02461); assay: as above; settings: biotinylated peptide
T2 construct: purchased Sigma-Aldrich
T2 sequence (P02461 154-1221 limits assumed): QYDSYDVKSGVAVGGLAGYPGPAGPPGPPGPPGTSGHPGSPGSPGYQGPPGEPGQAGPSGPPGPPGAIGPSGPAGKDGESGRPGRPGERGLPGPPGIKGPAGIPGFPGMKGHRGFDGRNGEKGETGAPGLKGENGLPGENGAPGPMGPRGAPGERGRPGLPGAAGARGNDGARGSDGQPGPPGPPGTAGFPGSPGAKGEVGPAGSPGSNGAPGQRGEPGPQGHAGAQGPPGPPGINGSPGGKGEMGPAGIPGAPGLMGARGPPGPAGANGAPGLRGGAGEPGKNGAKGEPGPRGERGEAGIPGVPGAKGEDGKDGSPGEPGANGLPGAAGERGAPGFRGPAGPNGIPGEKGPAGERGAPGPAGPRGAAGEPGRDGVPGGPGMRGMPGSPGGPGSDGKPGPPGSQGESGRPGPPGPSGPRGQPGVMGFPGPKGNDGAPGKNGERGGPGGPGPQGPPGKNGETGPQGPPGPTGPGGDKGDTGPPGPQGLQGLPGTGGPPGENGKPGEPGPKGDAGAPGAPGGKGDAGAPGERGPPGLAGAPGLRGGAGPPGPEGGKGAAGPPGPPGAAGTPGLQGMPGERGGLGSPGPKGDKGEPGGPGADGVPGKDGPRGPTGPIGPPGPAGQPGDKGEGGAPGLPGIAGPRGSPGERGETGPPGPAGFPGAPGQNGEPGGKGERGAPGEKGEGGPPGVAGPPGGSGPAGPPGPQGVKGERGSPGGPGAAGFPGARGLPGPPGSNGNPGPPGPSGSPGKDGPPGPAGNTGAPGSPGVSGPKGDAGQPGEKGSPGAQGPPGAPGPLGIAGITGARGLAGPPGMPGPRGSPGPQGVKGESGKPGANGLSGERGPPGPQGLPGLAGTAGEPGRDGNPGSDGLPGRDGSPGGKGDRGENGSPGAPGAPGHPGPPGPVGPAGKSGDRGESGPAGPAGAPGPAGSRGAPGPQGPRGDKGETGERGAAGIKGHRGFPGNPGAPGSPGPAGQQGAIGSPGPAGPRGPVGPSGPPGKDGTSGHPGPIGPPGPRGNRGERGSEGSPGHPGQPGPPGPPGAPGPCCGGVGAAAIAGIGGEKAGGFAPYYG
Method: as §1

Matrigel = assay: as above; settings: 1000 μM biotinylated peptide
Method: as §1

collagen IV = collagen IV (Mus musculus, UniProt P02463+P08122); assay: as above; parameters: purchased Sigma-Aldrich; settings: 1000 μM biotinylated peptide; relative to background fluorescence at 0 μM
collagen IV, sequence (P02463 173-1669): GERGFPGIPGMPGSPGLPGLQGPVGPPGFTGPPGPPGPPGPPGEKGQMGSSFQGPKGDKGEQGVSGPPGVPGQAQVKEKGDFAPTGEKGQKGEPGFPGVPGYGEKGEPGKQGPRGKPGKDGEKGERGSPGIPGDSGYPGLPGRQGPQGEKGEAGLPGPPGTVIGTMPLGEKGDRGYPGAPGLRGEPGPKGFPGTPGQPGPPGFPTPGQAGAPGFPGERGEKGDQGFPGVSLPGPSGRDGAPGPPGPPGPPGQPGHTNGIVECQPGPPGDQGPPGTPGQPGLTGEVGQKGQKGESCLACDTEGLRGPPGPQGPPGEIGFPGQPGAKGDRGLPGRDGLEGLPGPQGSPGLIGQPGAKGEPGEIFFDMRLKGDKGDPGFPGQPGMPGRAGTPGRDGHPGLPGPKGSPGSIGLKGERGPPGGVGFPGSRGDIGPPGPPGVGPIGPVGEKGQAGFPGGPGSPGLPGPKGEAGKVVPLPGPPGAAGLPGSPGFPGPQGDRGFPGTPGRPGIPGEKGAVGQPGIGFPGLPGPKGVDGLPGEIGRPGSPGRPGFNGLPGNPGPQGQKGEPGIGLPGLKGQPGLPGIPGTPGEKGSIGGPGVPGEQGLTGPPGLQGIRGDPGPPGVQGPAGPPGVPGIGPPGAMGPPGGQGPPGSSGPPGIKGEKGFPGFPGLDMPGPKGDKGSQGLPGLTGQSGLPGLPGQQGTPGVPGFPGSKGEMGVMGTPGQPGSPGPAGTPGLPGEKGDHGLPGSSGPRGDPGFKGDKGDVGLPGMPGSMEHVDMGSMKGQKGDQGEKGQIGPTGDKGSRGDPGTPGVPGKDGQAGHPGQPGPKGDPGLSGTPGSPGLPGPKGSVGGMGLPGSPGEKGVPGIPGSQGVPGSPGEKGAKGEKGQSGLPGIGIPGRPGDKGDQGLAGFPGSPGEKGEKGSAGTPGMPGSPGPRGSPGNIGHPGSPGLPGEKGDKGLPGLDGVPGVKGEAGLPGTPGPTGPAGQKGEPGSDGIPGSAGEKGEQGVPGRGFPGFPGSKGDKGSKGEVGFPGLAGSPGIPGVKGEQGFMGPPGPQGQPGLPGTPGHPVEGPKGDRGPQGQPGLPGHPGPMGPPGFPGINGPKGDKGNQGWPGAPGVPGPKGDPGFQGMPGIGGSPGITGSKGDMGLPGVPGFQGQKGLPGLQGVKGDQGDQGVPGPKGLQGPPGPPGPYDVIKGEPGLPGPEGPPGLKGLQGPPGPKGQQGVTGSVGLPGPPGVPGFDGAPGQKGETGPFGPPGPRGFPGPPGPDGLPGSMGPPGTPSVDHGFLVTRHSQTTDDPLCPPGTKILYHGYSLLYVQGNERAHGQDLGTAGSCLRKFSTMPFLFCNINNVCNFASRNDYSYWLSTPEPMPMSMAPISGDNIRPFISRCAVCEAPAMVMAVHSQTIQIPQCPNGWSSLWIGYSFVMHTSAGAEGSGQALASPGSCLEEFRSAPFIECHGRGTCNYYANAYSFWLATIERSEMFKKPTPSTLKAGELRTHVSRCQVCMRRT
collagen IV, sequence (P08122 184-1707): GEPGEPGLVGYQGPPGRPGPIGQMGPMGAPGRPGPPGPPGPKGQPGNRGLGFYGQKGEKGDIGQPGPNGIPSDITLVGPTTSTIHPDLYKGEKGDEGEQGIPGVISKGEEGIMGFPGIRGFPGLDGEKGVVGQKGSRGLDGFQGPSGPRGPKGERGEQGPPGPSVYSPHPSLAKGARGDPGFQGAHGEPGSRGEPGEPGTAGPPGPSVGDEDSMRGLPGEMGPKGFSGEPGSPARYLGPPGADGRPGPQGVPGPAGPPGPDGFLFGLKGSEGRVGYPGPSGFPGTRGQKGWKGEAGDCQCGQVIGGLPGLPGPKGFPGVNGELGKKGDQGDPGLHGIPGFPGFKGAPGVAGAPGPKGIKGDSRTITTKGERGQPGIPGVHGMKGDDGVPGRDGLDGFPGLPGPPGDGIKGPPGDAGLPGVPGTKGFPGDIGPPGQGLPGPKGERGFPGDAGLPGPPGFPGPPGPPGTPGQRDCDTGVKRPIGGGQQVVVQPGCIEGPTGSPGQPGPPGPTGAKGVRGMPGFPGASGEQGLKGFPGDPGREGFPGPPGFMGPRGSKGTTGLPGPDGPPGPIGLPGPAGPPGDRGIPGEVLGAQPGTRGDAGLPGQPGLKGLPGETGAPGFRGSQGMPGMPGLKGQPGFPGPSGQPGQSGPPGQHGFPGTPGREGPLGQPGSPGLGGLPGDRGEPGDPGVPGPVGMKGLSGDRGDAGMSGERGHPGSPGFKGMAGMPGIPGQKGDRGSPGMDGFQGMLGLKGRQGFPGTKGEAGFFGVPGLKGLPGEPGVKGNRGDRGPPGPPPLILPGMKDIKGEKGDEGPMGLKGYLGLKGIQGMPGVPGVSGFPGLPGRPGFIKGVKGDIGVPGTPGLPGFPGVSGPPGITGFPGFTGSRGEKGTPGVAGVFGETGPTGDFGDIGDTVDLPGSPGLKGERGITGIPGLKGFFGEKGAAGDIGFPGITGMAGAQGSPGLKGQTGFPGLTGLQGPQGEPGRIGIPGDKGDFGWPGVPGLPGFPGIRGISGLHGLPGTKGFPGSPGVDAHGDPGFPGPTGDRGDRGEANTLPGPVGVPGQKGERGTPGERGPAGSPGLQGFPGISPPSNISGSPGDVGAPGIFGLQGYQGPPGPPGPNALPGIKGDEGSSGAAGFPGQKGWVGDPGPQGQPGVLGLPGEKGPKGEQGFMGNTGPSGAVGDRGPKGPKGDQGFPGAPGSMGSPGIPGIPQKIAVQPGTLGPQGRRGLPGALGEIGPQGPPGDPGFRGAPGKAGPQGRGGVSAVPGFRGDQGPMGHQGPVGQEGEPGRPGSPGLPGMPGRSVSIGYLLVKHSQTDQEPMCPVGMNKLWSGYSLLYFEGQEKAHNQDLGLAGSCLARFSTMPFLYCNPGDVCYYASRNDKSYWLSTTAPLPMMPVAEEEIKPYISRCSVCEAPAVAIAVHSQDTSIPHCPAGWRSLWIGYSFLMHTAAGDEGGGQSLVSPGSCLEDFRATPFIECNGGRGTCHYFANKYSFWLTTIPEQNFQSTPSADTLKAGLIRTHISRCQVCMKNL
Method: as §1

collagen II = assay: as above; parameters: species or system chicken; settings: biotinylated peptide
Method: as §1

collagen I = molecular target: T3, collagen I (Rattus norvegicus, UniProt P02454+P02466); assay: as above; settings: biotinylated peptide
T3 construct: purchased Sigma-Aldrich
T3 sequence (P02454 152-1207 limits assumed): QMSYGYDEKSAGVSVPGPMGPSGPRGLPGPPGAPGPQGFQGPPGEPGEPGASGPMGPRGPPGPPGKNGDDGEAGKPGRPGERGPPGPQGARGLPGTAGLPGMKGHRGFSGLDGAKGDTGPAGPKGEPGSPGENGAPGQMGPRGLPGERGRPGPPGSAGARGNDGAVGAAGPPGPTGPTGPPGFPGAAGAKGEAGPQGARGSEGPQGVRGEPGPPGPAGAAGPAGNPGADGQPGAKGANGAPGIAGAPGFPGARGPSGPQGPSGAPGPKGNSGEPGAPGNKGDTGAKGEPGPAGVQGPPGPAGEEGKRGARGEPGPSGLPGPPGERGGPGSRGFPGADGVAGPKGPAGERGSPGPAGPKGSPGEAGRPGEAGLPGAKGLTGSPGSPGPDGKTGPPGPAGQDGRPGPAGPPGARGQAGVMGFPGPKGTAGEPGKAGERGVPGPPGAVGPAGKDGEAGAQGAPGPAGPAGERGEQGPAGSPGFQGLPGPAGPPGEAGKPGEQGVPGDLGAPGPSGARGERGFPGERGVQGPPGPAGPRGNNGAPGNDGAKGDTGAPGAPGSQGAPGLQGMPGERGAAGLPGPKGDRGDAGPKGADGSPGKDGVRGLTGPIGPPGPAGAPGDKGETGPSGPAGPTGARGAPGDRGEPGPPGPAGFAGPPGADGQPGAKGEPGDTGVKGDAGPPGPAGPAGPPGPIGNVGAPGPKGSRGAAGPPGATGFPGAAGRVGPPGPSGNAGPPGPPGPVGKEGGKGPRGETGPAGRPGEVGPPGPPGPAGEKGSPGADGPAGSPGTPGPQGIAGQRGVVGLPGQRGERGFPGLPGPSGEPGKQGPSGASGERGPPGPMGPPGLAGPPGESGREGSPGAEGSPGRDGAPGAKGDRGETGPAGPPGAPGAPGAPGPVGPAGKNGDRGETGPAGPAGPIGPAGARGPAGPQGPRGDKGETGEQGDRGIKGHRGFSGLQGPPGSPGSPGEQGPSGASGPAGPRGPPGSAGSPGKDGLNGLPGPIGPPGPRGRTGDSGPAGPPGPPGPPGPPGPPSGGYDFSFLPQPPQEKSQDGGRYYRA
T3 sequence (P02466 86-1125 limits assumed): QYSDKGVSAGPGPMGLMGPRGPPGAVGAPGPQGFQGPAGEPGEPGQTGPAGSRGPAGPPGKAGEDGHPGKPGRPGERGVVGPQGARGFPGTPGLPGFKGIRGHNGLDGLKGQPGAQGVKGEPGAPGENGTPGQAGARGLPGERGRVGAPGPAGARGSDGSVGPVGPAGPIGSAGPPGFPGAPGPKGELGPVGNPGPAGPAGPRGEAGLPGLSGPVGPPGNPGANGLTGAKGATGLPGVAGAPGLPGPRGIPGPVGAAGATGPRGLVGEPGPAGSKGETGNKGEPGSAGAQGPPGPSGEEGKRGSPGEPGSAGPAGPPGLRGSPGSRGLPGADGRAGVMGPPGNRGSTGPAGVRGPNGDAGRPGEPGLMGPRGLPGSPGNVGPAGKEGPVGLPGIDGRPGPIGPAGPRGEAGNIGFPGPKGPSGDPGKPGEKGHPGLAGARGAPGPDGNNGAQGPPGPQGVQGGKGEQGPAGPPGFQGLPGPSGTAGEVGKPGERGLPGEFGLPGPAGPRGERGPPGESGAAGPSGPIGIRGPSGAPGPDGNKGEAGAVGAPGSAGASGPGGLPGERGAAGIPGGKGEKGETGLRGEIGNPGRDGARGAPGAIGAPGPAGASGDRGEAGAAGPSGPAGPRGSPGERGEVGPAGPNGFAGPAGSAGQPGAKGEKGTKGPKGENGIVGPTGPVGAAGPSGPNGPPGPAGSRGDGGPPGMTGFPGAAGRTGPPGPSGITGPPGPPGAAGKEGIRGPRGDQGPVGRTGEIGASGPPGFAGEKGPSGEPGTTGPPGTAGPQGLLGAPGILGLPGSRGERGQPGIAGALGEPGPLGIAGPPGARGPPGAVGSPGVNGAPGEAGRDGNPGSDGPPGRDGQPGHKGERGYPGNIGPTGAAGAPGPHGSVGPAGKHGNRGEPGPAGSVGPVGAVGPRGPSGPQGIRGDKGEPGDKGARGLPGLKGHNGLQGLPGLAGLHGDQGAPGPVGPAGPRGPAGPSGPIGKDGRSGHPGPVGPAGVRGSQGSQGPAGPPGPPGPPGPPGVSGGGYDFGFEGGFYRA
Method: as §1

[2] = tested on: collagen I and collagen IV in decellularized rat aorta ECM and renal ECM; assay: Streptavidin-594 staining of biotinylated CBP on decellularized tissue; assay type: binding; settings: biotinylated CBP at 100 μM
Source text: FIG. 7: Immunofluorescence staining of collagen I and collagen IV in decellularized rat aorta ECM (A) and renal ECM (C). Streptavidin-594 staining of biotinylated CBP on decellularized rat aorta ECM (B) and renal ECM (D). Scale bar=100 μm.
The binding between collagens (types I and IV) and CBP, is predicted to be mediated by intermolecular forces between discrete amino acids within collagen and CBP^17 that contribute to the binding specificity observed above. The molecular composition of ECM is largely heterogeneous, including fibrous proteins such as collagens, soluble proteins such as fibronectin and laminin, and proteoglycans such as heparan sulfate, keratin sulfate, and chondroitin sulfate.^18 The detailed composition of ECM proteins also varies from tissue to tissue, however, ECM from most tissue types contains collagen I (interstitial matrix) and collagen IV (basement membrane).^18 Each collagen subtype is retained in decellularized tissues, specifically vascular (FIG. 7A) and renal tissues (FIG. 7C). […] Taken together, this delivery strategy using CBP as a localizing moiety specifically targets collagens (type IV in particular) and may be used to selectively carry bioactive molecules to the vasculature where collagen IV defines the subendothelial basement membrane that forms the vascular network, including the macro- and micro-vasculatures within all tissues and organs.

rat aorta ECM = assay: Heparin deposited and retained on aorta ECM (DMMB GAG assay); assay type: binding; settings: immediately after treatment at 1 mg/mL (t=0)
Method: Heparin Immobilization onto Rat Aorta ECM. All animal experiments and procedures were approved by the Animal Care and Use Committee of Northwestern University and animal care was performed in accordance with the NIH Guide for Care and Use of Laboratory Animals. Male Sprague-Dawley rats weighing 200-250 g (Charles River Laboratories, Chicago, IL) were used as donors to recover the abdominal segment of the aorta. Rat aorta ECM was isolated via decellularization as described 13 using 1% Triton X for 48 h and 1.5% SDS for 48 h at room temperature, followed by 100 U/mL DNase I solution at 37° C. for 4 h. Aorta ECM was subsequently incubated with heparin sodium, CBP-conjugated heparin or CBPi-conjugated heparin (1 mg/mL) overnight at 4° C., followed by three washes with PBS to remove excessive and unbound heparin (FIG. 1B). ECM without heparin incubation served as negative, untreated controls.
Quantification of Heparin Deposited onto ECM. The amount of heparin immobilized onto aorta ECM was quantified using a GAG assay. […] Retention of heparin on ECM after CBP-heparin treatment was assessed by incubating heparinized ECM in endothelial growth medium (EGM-2, Lonza) at 37° C. and measuring the amount of heparin remaining on ECM weekly using a GAG assay. […]

[3] = molecular target: T4, vascular endothelial growth factor, VEGF (Homo sapiens, UniProt P15692); assay: Growth factor binding to modified ECM (VEGF ELISA); settings: after incubation in EGM-2 for 3 days
T4 construct: purchased Lonza (component of EGM-2 medium)
T4 sequence (P15692 27-191 isoform P15692-4): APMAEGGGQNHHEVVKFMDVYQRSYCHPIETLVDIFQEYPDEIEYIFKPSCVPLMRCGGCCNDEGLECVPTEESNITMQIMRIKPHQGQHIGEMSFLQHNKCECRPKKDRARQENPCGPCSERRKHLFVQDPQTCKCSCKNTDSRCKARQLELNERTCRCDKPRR
Method: Growth Factor Binding to Modified ECM. ECM samples treated with PBS alone, heparin alone, CBPi-heparin, or CBP-heparin were incubated in EGM-2 (containing 2 ng/mL recombinant human vascular endothelial growth factor, VEGF) for 3 days and washed with PBS to measure the degree of VEGF recruited to heparin modified ECM. ECM grafts before and after EGM-2 incubation were weighed and proteins were extracted as previously described using a urea buffer. 13 The amount of VEGF was measured using an ELISA for human and rat VEGF (Thermo Fisher, Waltham, MA).

rat platelet rich plasma = assay: Platelet adhesion to modified ECM (LDH assay); assay type: cell-based; settings: ECM treated at 1 mg/mL
Method: Platelet Adhesion. The thrombogenic properties of modified ECM were evaluated by a platelet adhesion assay described previously.^13 ECM grafts were incubated in diluted rat platelet rich plasma ([…] platelet/mL) at 37° C. for 1 h, rinsed with warm PBS, and lysed with 2% Triton-X. Lactate dehydrogenase (LDH) released into the medium was measured by an LDH assay following the manufacturer's protocol (Roche Molecular Diagnostics, Pleasanton, CA). LDH measured from lysates of serially diluted platelets standardized the assay to quantify the concentration of deposited platelet on ECM.

[4] = tested on: recalcified porcine blood; assay: Clot formation of recalcified whole blood on ECM grafts
Method: Clot Formation of Recalcified Whole Blood. A recalcified whole blood clotting assay was performed to assess hemocompatibility of ECM grafts treated with or without the addition of heparin, alone or conjugated to CBP/CBPi.^15 Briefly, […] Each sample was weighed before and after incubation with recalcified blood, and the mass of the blood clotted on each sample was calculated and normalized to the weight of the ECM. Each sample containing clotted blood was subsequently embedded in paraffin, sectioned and stained with H&E for microscopic analysis.

factor Xa = settings: unconjugated heparin sodium; cited from earlier work

binding to fibronectin (fibronectin) | binding to collagen III (collagen III) | increase in surface fluorescence intensity on collagen IV coated surface (collagen IV) | binding to collagen II (collagen II) | binding to collagen I coated surfaces (collagen I) | VEGF concentration within ECM grafts [3] | Substance | adherent endothelial cells on ECM grafts [1] | adherent endothelial cells on ECM grafts ([1]; listed as BCPi) | binding to laminin (laminin) | binding to Matrigel (Matrigel) | colocalization with collagens in decellularized vascular and renal tissue [2] | glycosaminoglycan (heparin) content of ECM (rat aorta ECM) | reduction in the number of adherent platelets compared to PBS-treated ECM (rat platelet rich plasma) | blood clots observed on ECM grafts (H&E) ([4]; decellularized vascular ECM grafts) | mass of clot/mass of ECM×100% ([4]; treated ECM with recalcified blood, 30 min point) | anti-Factor Xa activity of reference standard (factor Xa)
Neither CBP nor CBPi binds | Neither CBP nor CBPi binds | did not result in any increase | Neither CBP nor CBPi binds | – | – | CDEFQRSTTY [CBPi] | did not preserve endothelial cell adhesion | Minimal to no cells remain | minimal, through significant, levels of binding | minimal, through significant, levels of binding | – | – | – | – | – | –
Neither CBP nor CBPi binds | Neither CBP nor CBPi binds | – | Neither CBP nor CBPi binds | to a much lesser extent | – | CQDSETRTFY (not fully specified; also: biotin, place not given here; listed as Homo sapiens) [CBP] | did not preserve endothelial cell adhesion; also recorded: Minimal to no cells remain | – | minimal, through significant, levels of binding | minimal, through significant, levels of binding | colocalized with each subtype but was more prominent around collagen IV | – | – | – | – | –
– | – | – | – | – | 46.5±12.1 pg/mg ECM | Heparin sodium | decreased significantly | – | – | – | – | 2.81±0.19 μg GAG/mg ECM | 5.7±6.2% | Thick blood clots | 612.1±126.0% | 200 U/mg
